Data set [1] deals with NFATZ Jurkat cells and JK12/90.1 cells. The data set can be described thus: Toxic effects on the stimulated cells. Type of data set: cell-based. Particulars: FK506 100 ng/ml or CsA 500 ng/ml, five minutes prior to PMA and ionomycin, 2 hours.
For data set [2], the system named is NF-AT. The data set can be described thus: Gel mobility shift assay of NF-AT DNA binding activity in extracts of treated Jurkat cells. It is filed as cell-based, human. The method, then:
Nuclear extracts were made according to the procedures of Ohlsson and Edlund (Cell 45:35 (1986)). Briefly, nuclei were extracted with 0.3 M (NH4)2SO4 and the fraction that contained the nuclear proteins was precipitated with 0.2 g/ml (NH4)2SO4 and dialyzed for 4 h. at 4° C. The NF-AT binding site of the IL-2 enhancer (−290 and −263) was used as a probe for binding activity. The binding experiment was carried out essentially as described in Shaw, J. P. Science 241:202-205 (1988)).
NFATZ Jurkat cells were pretreated with 100 μM anisoymycin (Sigma), a protein synthesis inhibitor, for 30 minutes before stimulating the cells. Conditions for activating the cells and preparing nuclear and cytoplasmic extracts are described in Example 3.
(§1) NFATZ Jurkat cells and JK12/90.1 cells (a gift from N. Shastri) were stimulated for 2 hours with 20 ng/ml PMA and 2 μM ionomycin. […] Nuclear extracts were prepared as described previously with modifications. Cytoplasmic extracts were made from the same cells as the nuclear extracts. Following lysis of the cells with buffer A [10 mM Hepes (pH 7.8), 15 mM Kcl, 2 mM MgCl2, 1 mM DTT, 0.1 mM EDTA, 0.1 mM PMSF] plus 0.05% NP-40, and pelleting of the nuclei, the cytoplasmic fraction was removed and stabilized with 10% (vol/vol) glycerol and 1/10 volume of buffer B [0.3 M Hepes (pH 7.8), 1.4 M Kcl, and 30 mM MgCl2]. The cytoplasmic extract was centrifuged at 200,000 g for 15 minutes. An equal volume of 3 M (NH4)2SO4 (pH 7.9) was added to the supernatant, and precipitated proteins were pelleted at 100,000 g for 10 minutes. The pelleted cytoplasmic proteins were resuspended in buffer C [50 mM Hepes (pH 7.8), 50 mM KCl, 1 mM DTT, 0.1 mM EDTA, 0.1 mM PMSF, 10% (vol/vol) glycerol] and desalted by passage over a P6DG column (BioRad). Protein concentrations were determined using a BioRad protein assay kit. To assess the completeness of the nuclear and cytoplasmic fractionation, we assayed for Oct-1 (a constitutive nuclear located DNA binding protein) binding activity and β-galactosidase (cytoplasmic localized) enzyme activity. […]

Data set [3] deals with NF-AT. The data set can be described thus: In vitro transcription directed by multimerized NF-AT binding sites (G-less) by nuclear extracts of treated Jurkat cells. Particulars: nuclear extracts of stimulated/FK506-treated cells, 10 ng/ml. It is filed as cell-based, human. The method, then: The effect of FK506 on the ability of NF-AT to direct transcription was tested by preparing nuclear extracts from stimulated or stimulated/FK506-treated cells and testing their ability to transcribe a G-less cassette in which transcription was dependent upon three NF-AT sites located within a synthetic promoter.
Promoter constructs, nuclear extracts and transcription reactions were prepared as described. NFATZ Jurkat cells, derived from a human T cell leukemia, were stimulated with […] PMA (Sigma), 2 μM ionomycin (Calbiochem) for 2 hours. FK506 was used at 10 ng/ml and added five minutes prior to the addition of PMA and ionomycin. […] Transcription was quantitated using a radioanalytic imaging system (AMBIS). […]
In general, transcription reactions (20 μl) contained 40 μg/ml of circular DNA template [400 ng of the test construct, 40 ng of the AdMLP G-less construct, and 360 ng of poly dI-dC (Pharmacia)] and between 3-5 mg/ml nuclear protein extract in a buffer containing 25 mM Hepes (pH 7.6), 50 mM KCl, 6 mM MgCl2, 0.6 mM each of ATP and CTP, 7 μM UTP, 7 μCi [a-^32P] […] The pellets were rinsed with 70% ethanol, air dried, and resuspended in 10 μl of loading dye (90% formamide, 0.01% xylene cyanol, and 0.01% bromophenol blue in 1×TBE.) The transcripts were analyzed on 6% denaturing polyacrylamide gels. […]

Data set [4] concerns nuclear component of NF-AT. Kind of data set: Reconstitution of NF-AT binding: synthesis of the nuclear component. It is filed as cell-based, human. Particulars: PMA/ionomycin-stimulated cells. The method, then:
as §1

The test system of a further data set is NF-ATc. The data set can be described thus: Western blot mobility of epitope tagged NF-ATc expressed in Jurkat cells. It is filed as cell-based, human. Particulars: stimulated 2 hrs, whole cell lysates. On the procedure: Whole cell lysates were analyzed by western blotting as in FIG. 13.
The cDNA shown in FIG. 12 was fused to the Hemophilus influenza hemaglutinin (HA) 12 amino acid epitope tag in the determined reading frame and operably linked to the SRα promoter in the vector pBJ5 (Lin et al, 1990, Science 249:677-679). The resultant construct was transiently transfected by electroporation into Jurkat human T lymphocytes, and into Cos fibroblast cells. Expression of the epitope-tagged NF-ATc protein was determined by Western blotting of whole cell extracts prepared from the transfected cells, using an antibody (12CA5, Berkeley Antibody Co., CA) that detects the HA epitope.
Post-translational modification of NF-ATc was investigated in cells treated with agents that activate PKC or increase intracellular Ca++. […] Whole cell lysates were analyzed by western blotting as in FIG. 13. […] This is consistent with a dephosphorylation event, possibly by direct action of calcineurin (Clipstone and Crabtree (1992) Nature 357: 695-697), however, any of a large number of processes could produce the observed mobility changes. There is evidence that NF-ATp is a substrate for calcineurin, however, the mobility shifts produced by phosphatase treatment of NF-ATp or NF-ATc are far greater than those observed in FIG. 19. These observations indicate that NF-ATc is not a direct substrate of calcineurin.
Background: A western blot detects proteins with antibodies after separation by electrophoresis.

The subject of the next data set is IL-2 promoter. Kind of data set: IL-2 enhancer/promoter luciferase reporter co-transfected with NF-ATc expression vector in Cos cells. It is filed as cell-based. Particulars: overexpression in Cos cells. The method, then:
(§2) The NF-ATc cDNA was operably linked to a portion of the SV40 early gene promoter and the mV transcription regulatory regions in the pBJ vector. This expression vector was co-tranfected into Jurkat and Cos cells with either a) three copies of NF-AT binding site linked to and directing transcription of luciferase (results shown in FIGS. 14A and 14B) the entire IL-2 enhancer/promoter directing transcription of luciferase (results shown in FIG. 14B). Cytosolic extracts were prepared and luciferase assays carried out by standard procedures (de Wet et al, 1987, Mol. Cell. Biol. 7:724-[…]).

The subject of the next data set is NF-AT binding site. Kind of data set: NF-AT luciferase reporter co-transfected with NF-ATc expression vector in Cos and Jurkat cells. It is filed as cell-based. Particulars: overexpression in Cos cells and Jurkat cells. On the procedure: as §2
(A reporter such as luciferase makes a cellular process visible.)

We go through 5 molecules from patent publication US6875571B2, “NF-AT polypeptides and polynucleotides and screening methods for immunosuppressive agents” (The Board of Trustees of the Leland Stanford Junior …, priority 1991, dated 2005).

Regarding `C=CC[C@@H]1/C=C(\C)C[C@H](C)C[C@H](OC)[C@H]2O[C@@](O)(C(=O)C(=O)N3CCCC[C@H]3C(=O)O[C@H](/C(C)=C/[C@@H]3CC[C@@H](O)[C@H](OC)C3)[C@H](C)[C@@H](O)CC1=O)[C@H](C)C[C@@H]2OC` [FK506], the “toxic effects to the cells” value in data set [1] is reported as “without any toxic effects”. Besides, in the data set with NF-AT [2] (nuclear extracts of stimulated/FK506-treated cells, 10 ng/ml), the “reduction of NF-AT DNA-binding activity in the extracts” value lay within 50 to 80%. Also, the “reduction of in vitro transcription directed by multimerized NF-AT binding sites” value in the data set with NF-AT [3] is 2.5 fold. In addition, the “synthesis of the nuclear component of NF-AT” value in data set [4] is “did not inhibit”.
As for `CCCCCCCCCCCCCC(=O)O[C@@H]1[C@@H](C)[C@@]2(O)[C@@H](C=C(CO)C[C@]3(O)C(=O)C(C)=C[C@@H]23)[C@@H]2C(C)(C)[C@]12OC(C)=O` [PMA, phorbol myristate acetate], in the data set on NF-ATc, the “mobility of NF-ATc versus non-treated cells” value is recorded as “slower migrating”.
Consider `C[C@H](CCC(=O)O)C[C@H](C)C[C@H](C)C(=O)/C=C(\O)[C@H](C)C[C@H](C)C/C=C/[C@@H](C)[C@@H](O)[C@@H](C)[C@@H](O)C[C@@H]1CC[C@@](C)([C@H]2CC[C@@](C)([C@@H](C)O)O2)O1` [ionomycin], for which the “mobility of NF-ATc versus non-treated cells” value with NF-ATc is “migrates faster”.
Turning to `COc1ccc(C[C@H]2NC[C@H](O)[C@H]2OC(C)=O)cc1` [anisomycin], the “appearance of the NF-AT complex in activated T cells” value with NF-AT [2] (NFATZ Jurkat cells pretreated with 100 μM for 30 minutes before stimulation) is reported as “completely blocked”. Besides, in the data set with NF-AT [2] (cytoplasmic extracts of cells grown with 100 μM protein synthesis inhibitor), the “ability of cytoplasmic extracts from treated cells to reconstitute the NF-AT complex” value was “able to reconstitute”.

B1: NF-ATc: human cytosolic NF-AT subunit, protein of 716 amino acids (SEQ ID NO: 38), expressed from cDNA (protein)
chain: MPSTSFPVPSKFPLGPAAAVFGRGETLGPAPRAGGTMKSAEEEHYGYASSNVSPALPLPTAHSTLPAPCHNLQTSTPGIIPPADHPSGYGAALDGCPAGYFLSSGHTRPDGAPALESPRIEITSCLGLYHNNNQFFHDVEVEDVLPSSKRSPSTATLSLPSLEAYRDPSCLSPASSLSSRSCNSEASSYESNYSYPYASPQTSPWQSPCVSPKTTDPEEGFPRGLGACTLLGSPQHSPSTSPRASVTEESWLGARSSRPASPCNKRKYSLNGRQPPYSPHHSPTPSPHGSPRVSVTDDSWLGNTTQYTSSAIVAAINALTTDSSLDLGDGVPVKSRKTTLEQPPSVALKVEPVGEDLGSPPPPADFAPEDYSSFQHIRKGGFCDQYLAVPQHPYQWAKPKPLSPTSYMSPTLPALDWQLPSHSGPYELRIEVQPKSHHRAHYETEGSRGAVKASAGGHPIVQLHGYLENEPLMLQLFIGTADDRLLRPHAFYQVHRITGKTVSTTSHEAILSNTKVLEIPLLPENSMRAVIDCACILKLRNSDIELRKGETDIGRKNTRVRLVFRVHVPQPSGRTLSLQVASNPIECSQRSAQELPLVEKQSTDSYPVVGGKKMVLSGHNFLQDSKVIFVEKAPDGHHVWEMEAKTDRDLCKPNSLVVEIPPFRNQRITSPVHVSFYVCNGKRKRSQYQRFTYLPANGNAIFLTVSREHERVGCFF
modifications: human
Regarding B1, the “activation of the IL-2 promoter” value with IL-2 promoter is “activates”. In addition, the “enhancement of NF-AT-dependent transcription” value in the data set with NF-AT binding site was 50-1000 fold.
